Results taken from patent publication US7820405B2, “Specific bacterial inclusions in bone marrow cells indicate systematic lupus erthematosus, and treatment for lupus” (Sphingomanas Research Partners, L.P., priority 2005, dated 2010).

Tested on: intra-erythrocytic bacterial structures (Mycoplasma haemosapiens)
Type: in vivo, human
Conditions: Patient A, during doxycycline 100 mg twice daily; declined from about 16% before therapy

C[C@H]1c2cccc(O)c2C(=O)C2=C(O)[C@]3(O)C(=O)C(C(N)=O)=C(O)[C@@H](N(C)C)[C@@H]3[C@@H](O)[C@@H]21 [doxycycline] was tested, and the “percentage of parasitized erythrocytes” value was “approximately 8%”.
